SMILES strings stand for the structures.

This assay deals with Wild-type cruzipain (Trypanosoma cruzi, UniProt P25779). Kind of assay: Trypanosoma cruzi cruzipain peptidase activity assay (Ki). It is filed as biochemical. The conditions noted are these: read-out: Ki, inhibitors of cruzain and cruzipains. The method, then: Unless otherwise stated, all general chemicals and biochemicals were purchased from either the Sigma Chemical Company, Poole, Dorset, U.K or from Fisher Scientific UK, Loughborough, Leicestershire, U.K. Absorbance assays were carried out in flat-bottomed 96-well plates (Spectra; Greiner Bio-One Ltd., Stonehouse, Gloucestershire, U.K.) using a SpectraMax PLUS384 plate reader (Molecular Devices, Crawley, U.K.). Fluorescence high throughput assays were carried out in either 384-well microtitre plates (Corning Costar 3705 plates, Fisher Scientific) or 96-well ‘U’ bottomed Microfluor W1 microtitre plates (Thermo Labsystems, Ashford, Middlesex, U.K.). Fluorescence assays were monitored using a SpectraMax Gemini fluorescence plate reader (Molecular Devices). For substrates employing either a 7-amino-4-methylcoumarin (AMC) or a 7-amino-4-trifluoromethylcoumarin (AFC) fluorophore, assays were monitored at an excitation wavelength of 365 nm and an emission wavelength of 450 nm and the fluorescence plate reader calibrated with AMC. For substrates employing a 3-amino-benzoyl (Abz) fluorophore, assays were monitored at an excitation wavelength of 310 nm and an emission wavelength of 445 nm; the fluorescence plate reader calibrated with 3-amino-benzamide (Fluka). Unless otherwise indicated, all the peptidase substrates were purchased from Bachem UK, St Helens, Merseyside, UK. Substrates utilizing fluorescence resonance energy transfer methodology (i.e. FRET-based substrates) were synthesized at Incenta Limited using published methods (Atherton & Sheppard, Solid Phase Peptide Synthesis, IRL Press, Oxford, U.K, 1989) and employed Abz (2-aminobenzoyl) as the fluorescence donor and 3-nitro-tyrosine [Tyr(NO2)] as the fluorescence quencher (Meldal, M. and Breddam, K., Anal. Biochem, 195, 141-147, 1991). Hydroxyethylpiperazine ethanesulfonate (HEPES), tris-hydroxylmethyl aminomethane (tris) base, bis-tris-propane and all the biological detergents (e.g. CHAPS, zwittergents, etc.) were purchased from CN Biosciences UK, Beeston, Nottinghamshire, U.K. Glycerol was purchased from Amersham Pharmacia Biotech, Little Chalfont, Buckinghamshire, U.K. Stock solutions of substrate or inhibitor were made up to 10 mM in 100% dimethylsulfoxide (DMSO) (Rathburns, Glasgow, U.K.) and diluted as appropriately required. In all cases the DMSO concentration in the assays was maintained at less than 1% (vol./vol.).
Sequence of Wild-type cruzipain (P25779 whole entry): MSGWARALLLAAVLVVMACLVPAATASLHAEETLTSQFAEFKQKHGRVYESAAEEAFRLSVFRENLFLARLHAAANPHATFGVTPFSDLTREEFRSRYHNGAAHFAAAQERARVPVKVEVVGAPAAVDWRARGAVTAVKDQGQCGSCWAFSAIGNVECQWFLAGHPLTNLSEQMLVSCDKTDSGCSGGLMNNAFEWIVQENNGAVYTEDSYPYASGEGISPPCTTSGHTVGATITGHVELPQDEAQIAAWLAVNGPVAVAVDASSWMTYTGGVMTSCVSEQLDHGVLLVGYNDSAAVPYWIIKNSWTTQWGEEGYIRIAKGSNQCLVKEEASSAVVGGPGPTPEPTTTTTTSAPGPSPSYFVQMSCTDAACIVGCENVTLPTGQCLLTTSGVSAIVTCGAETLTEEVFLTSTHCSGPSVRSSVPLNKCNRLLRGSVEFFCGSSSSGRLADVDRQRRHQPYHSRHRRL
Assay protocols were based on literature precedent (Table 4; Barrett, A. J., Rawlings, N. D. and Woessner, J. F., 1998, Handbook of Proteolytic Enzymes, Academic Press, London and references therein) and modified as required to suit local assay protocols. Enzyme was added as required to initiate the reaction and the activity, as judged by the change in fluorescence upon conversion of substrate to product, was monitored over time. All assays were carried out at 25±1° C.
Wild-type cruzipain, derived from Trypanosoma cruzi Dm28 epimastigotes, was obtained from Dr. Julio Scharfstein (Instituto de Biofisica Carlos Chagas Filho, Universidade Federal do Rio de Janeiro, Rio de Janeiro, Brazil). Activity assays were carried out in 100 mM sodium phosphate, pH 6.75 containing 1 mM EDTA and 10 mM L-cysteine using 2.5 nM enzyme. […] The rate of conversion of substrate to product was derived from the slope of the increase in fluorescence monitored continuously over time.
The apparent inhibition constant (Ki) for each compound was determined on the basis that inhibition was reversible and occurred by a pure-competitive mechanism. The Ki values were calculated, from the dependence of enzyme activity as a function of inhibitor concentration, by direct regression analysis (Prism v 3.02) using Equation 2 (Cornish-Bowden, A., 1995.). [formula]
Consider `CC(C)C[C@H](NC(=O)c1ccc(N(C)C)cc1)C(=O)N1CC[C@@H]2[C@H]1C(=O)CN2C(=O)C1(N)CCCC1` [Example 224], for which the inhibition constant Ki is under 5 µM.

Regarding `O=C(N[C@@H](Cc1cccc(F)c1)C(=O)N1CC[C@@H]2[C@H]1C(=O)CN2C(=O)c1ccccc1)c1cccc(Br)c1` [Example 342, (3aR,6aS)-N-[(1S)-2-(4-Benzoyl-6-oxo-hexahydro-pyrrolo[3,2-b]pyrrol-1-yl)-1-(3-fluoro-benzyl)-2-oxo-ethyl]-3-bromo-benzamide], the Ki is under 5 µM.

For `CCC[C@H](NC(=O)c1ccc(N(C)C)cc1)C(=O)N1CC[C@@H]2[C@H]1C(=O)CN2C(=O)c1ccccc1` [Example 196, (3aR,6aS)-N-[(1S)-1-(4-Benzoyl-6-oxo-hexahydro-pyrrolo[3,2-b]pyrrole-1-carbonyl)-butyl]-4-dimethylamino-benzamide], the Ki is under 5 µM.

`CC(C)C[C@H](NC(=O)c1ccc(N(C)C)cc1)C(=O)N1CC[C@@H]2[C@H]1C(=O)CN2C(=O)[C@@H]1CCCN1` [Example 156, (3aR,6aS)-4-Dimethylamino-N-{(1S)-3-methyl-1-[6-oxo-4-((2S)-pyrrolidine-2-carbonyl)-hexahydro-pyrrolo[3,2-b]pyrrole-1-carbonyl]-butyl}-benzamide]: the inhibition constant (Ki) was under 5 µM.

`CC(=O)N[C@@H](C)C(=O)N1CC(=O)[C@@H]2[C@H]1CCN2C(=O)[C@H](CC(C)C)NC(=O)c1ccc(N(C)C)cc1` [Example 197, (3aR,6aS)-N-{(1S)-1-[4-((2S)-2-Acetylamino-propionyl)-6-oxo-hexahydro-pyrrolo[3,2-b]pyrrole-1-carbonyl]-3-methyl-butyl}-4-dimethylamino-benzamide]: the inhibition constant (Ki) was under 5 µM.

`CNCC(=O)N1CC(=O)[C@@H]2[C@H]1CCN2C(=O)[C@H](CC(C)C)NC(=O)c1ccc(N(C)C)cc1` [Example 200, (3aR,6aS)-4-Dimethylamino-N-{(1S)-3-methyl-1-[4-(2-methylamino-acetyl)-6-oxo-hexahydro-pyrrolo[3,2-b]pyrrole-1-carbonyl]-butyl}-benzamide]: the Ki is under 5 µM.

In the case of `O=C(N[C@@H](Cc1ccc(O)cc1)C(=O)N1CC[C@@H]2[C@H]1C(=O)CN2C(=O)c1ccccc1)c1cccc2cccnc12` [Example 297, (3aR,6aS)-Quinoline-8-carboxylic acid [(1S)-2-(4-benzoyl-6-oxo-hexahydro-pyrrolo[3,2-b]pyrrole-1-yl)-1-(4-hydroxy-benzyl)-2-oxo-ethyl]-amide], the inhibition constant (Ki) is under 5 µM.

In the case of `CC(C)C[C@H](NC(=O)c1ccc(N(C)C)cc1)C(=O)N1CC[C@@H]2[C@H]1C(=O)CN2C(=O)C1(N)CCC1` [Example 223, (3aR,6aS)-N-{(1S)-1-[4-(1-Amino-cyclobutanecarbonyl)-6-oxo-hexahydro-pyrrolo[3,2-b]pyrrole-1-carbonyl]-3-methyl-butyl}-4-dimethylamino-benzamide], the inhibitory constant (Ki) was under 5 µM.

Take `CCC[C@H](N)C(=O)N1CC(=O)[C@@H]2[C@H]1CCN2C(=O)[C@H](CC(C)C)NC(=O)c1ccc(N(C)C)cc1` [Example 210, (3aR,6aS)-N-{(1S)-1-[4-((2S)-2-Amino-pentanoyl)-6-oxo-hexahydro-pyrrolo[3,2-b]pyrrole-1-carbonyl]-3-methyl-butyl}-4-dimethylamino-benzamide]: the Ki was under 5 µM.

On to `O=C(N[C@@H](Cc1ccc(O)cc1)C(=O)N1CC[C@@H]2[C@H]1C(=O)CN2C(=O)c1ccccc1)c1cccnc1` [Example 336, (3aR,6aS)-N-[(1S)-2-(4-Benzoyl-6-oxo-hexahydro-pyrrolo[3,2-b]pyrrol-1-yl)-1-(4-hydroxy-benzyl)-2-oxo-ethyl]-nicotinamide], for which the Ki was under 5 µM.

As for `CC(C)C[C@H](NC(=O)c1ccc(N(C)C)cc1)C(=O)N1CC[C@@H]2[C@H]1C(=O)CN2C(=O)[C@@H]1CCCCN1` [Example 217, (3aR,6aS)-4-Dimethylamino-N-{(1S)-3-methyl-1-[6-oxo-4-((2S)-piperidine-2-carbonyl)-hexahydro-pyrrolo[3,2-b]pyrrole-1-carbonyl]-butyl}-benzamide], the inhibitory constant (Ki) is under 5 µM.

These data come from patent US20060100431A1, “Biologically active compounds” (Amura Therapeutics Limited, priority 2002, published 2006).
